Data taken from the NIST ThermoML archive (doi:10.1021/je200327s).
Numbers after ± are expanded uncertainties.

Experiment: xn = mol fraction of the nth substance listed
Details: 101 kPa, Liquid, Vibrating tube method

c1ccc2c(c1)sc1ccccc12 [dibenzothiophene] + CCCCCCCCCCCC
mass density [kg/m3]
Details | 298.2 K | 313.2 K
x1 = 0.0037 | – | 735.448 ± 0.25
x1 = 0.0046 | – | 735.694 ± 0.24
x1 = 0.0074 | 747.569 ± 0.24 | 736.633 ± 0.24
x1 = 0.0094 | 748.147 ± 0.24 | –
x1 = 0.0098 | – | 737.333 ± 0.24
x1 = 0.0142 | – | 738.752 ± 0.24
x1 = 0.0187 | – | 740.177 ± 0.24
x1 = 0.0191 | 751.276 ± 0.24 | –
x1 = 0.024 | – | 741.874 ± 0.25
x1 = 0.0285 | 754.322 ± 0.24 | –
x1 = 0.0305 | – | 743.953 ± 0.25
x1 = 0.0325 | – | 744.662 ± 0.25
x1 = 0.0372 | – | 746.081 ± 0.25
x1 = 0.0378 | 757.354 ± 0.24 | –
x1 = 0.0651 | – | 755.317 ± 0.25

c1ccc2c(c1)sc1ccccc12 [dibenzothiophene] + CCCCCCCCCCC
mass density [kg/m3]
Details | x1 = 0.0035 | x1 = 0.0069 | x1 = 0.0087 | x1 = 0.0186 | x1 = 0.0263 | x1 = 0.0286 | x1 = 0.0342 | x1 = 0.0436
298.2 K | 738.065 ± 0.35 | 739.235 ± 0.35 | 739.863 ± 0.35 | 743.359 ± 0.35 | – | 746.909 ± 0.35 | 748.935 ± 0.35 | –
313.2 K | 726.939 ± 0.35 | 728.106 ± 0.35 | 728.741 ± 0.35 | 732.22 ± 0.35 | 735.021 ± 0.35 | 735.767 ± 0.35 | 737.778 ± 0.35 | 741.11 ± 0.36

c1ccc2c(c1)sc1ccccc12 [dibenzothiophene] + CCCCCC
298.2 K
Details | mass density [kg/m3]
x1 = 0.0097 | 661.714 ± 2.1
x1 = 0.0147 | 665.156 ± 2.1
x1 = 0.0174 | 667.026 ± 2.1

c1ccc2c(c1)sc1ccccc12 [dibenzothiophene] + CCCCCCCCC
mass density [kg/m3]
Details | x1 = 0.0032 | x1 = 0.0057 | x1 = 0.0072 | x1 = 0.0147 | x1 = 0.0216 | x1 = 0.0287 | x1 = 0.0343
298.2 K | 715.374 ± 0.35 | 716.447 ± 0.35 | 717.097 ± 0.35 | 720.427 ± 0.35 | 723.475 ± 0.35 | 726.668 ± 0.35 | 729.068 ± 0.36
313.2 K | 703.613 ± 0.35 | 704.689 ± 0.35 | 705.41 ± 0.35 | 708.85 ± 0.35 | 711.795 ± 0.36 | 715.175 ± 0.36 | 717.135 ± 0.36

c1ccc2c(c1)sc1ccccc12 [dibenzothiophene] + CCCCCCC
298.2 K
Details | mass density [kg/m3]
x1 = 0.0056 | 683.108 ± 0.36
x1 = 0.0119 | 686.774 ± 0.36
x1 = 0.0176 | 690.099 ± 0.36
x1 = 0.0218 | 692.551 ± 0.36

c1ccc2c(c1)sc1ccccc12 [dibenzothiophene] + CCCCCCCCCC
mass density [kg/m3]
Details | x1 = 0.0034 | x1 = 0.0061 | x1 = 0.0082 | x1 = 0.0162 | x1 = 0.0259 | x1 = 0.0314
298.2 K | 727.461 ± 0.35 | 728.541 ± 0.35 | 729.331 ± 0.35 | 732.459 ± 0.35 | 736.262 ± 0.35 | 738.412 ± 0.35
313.2 K | 716.064 ± 0.35 | 717.143 ± 0.35 | 717.957 ± 0.35 | 721.088 ± 0.35 | 724.901 ± 0.35 | 727.044 ± 0.36

c1ccc2c(c1)sc1ccccc12 [dibenzothiophene] + C1CCCCC1
298.2 K
Details | mass density [kg/m3]
x1 = 0.0025 | 775.392 ± 0.27
x1 = 0.0045 | 776.667 ± 0.27
x1 = 0.0114 | 780.726 ± 0.27
x1 = 0.0224 | 787.439 ± 0.27

c1ccc2c(c1)sc1ccccc12 [dibenzothiophene] + CCCCCCCC
mass density [kg/m3]
Details | x1 = 0.0026 | x1 = 0.0049 | x1 = 0.0063 | x1 = 0.0127 | x1 = 0.0187 | x1 = 0.0252
298.2 K | 699.866 ± 1.4 | 701.048 ± 1.4 | 701.696 ± 1.4 | 704.954 ± 1.4 | 707.967 ± 1.4 | 711.182 ± 1.4
313.2 K | 687.657 ± 1.3 | 688.882 ± 1.3 | 689.525 ± 1.3 | 692.813 ± 1.3 | 695.851 ± 1.3 | 699.1 ± 1.4

c1ccc2c(c1)sc1ccccc12 [dibenzothiophene] + CCCCC
298.2 K
Details | mass density [kg/m3]
x1 = 0.0042 | 624.932 ± 0.3
x1 = 0.0077 | 627.957 ± 0.3
x1 = 0.0112 | 630.962 ± 0.3
x1 = 0.0158 | 634.865 ± 0.3

c1ccc2c(c1)sc1ccccc12 [dibenzothiophene] + CC(C)CC(C)(C)C
mass density [kg/m3]
Details | x1 = 0.0025 | x1 = 0.003 | x1 = 0.005 | x1 = 0.0063 | x1 = 0.0127 | x1 = 0.0149
298.2 K | 689.019 ± 0.28 | – | 690.292 ± 0.28 | – | 694.21 ± 0.28 | 695.329 ± 0.28
313.2 K | 676.548 ± 0.29 | 676.845 ± 0.29 | 677.841 ± 0.29 | 678.505 ± 0.29 | – | 683.13 ± 0.28
